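How tested: cells in 96-well plates exposed to compound for 48 hours at five concentrations. GI50: concentration for 50% inhibition of growth. At the TGI there is no net growth.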

Test in all cases: NCI anticancer screen, dose series, 48 h
For assay [1], the system named is OVCAR-5 ovarian.
For assay [2], the system named is COLO 205 colon.
Assay [3] relates to CAKI-1 renal.
In assay [4] the test system is NCI-H460 lung.
The subject of assay [5] is K-562 leukemia.
Assay [6] relates to MOLT-4 leukemia.
Assay [7] relates to HT29 colon.
In assay [8] the test system is SNB-19 CNS.
Assay [9] has as its system NCI/ADR-RES ovarian.
For assay [10], the system named is HS 578T breast.
Assay [11] has as its system MDA-N.

For `N#CC(NNC(=O)c1ccccc1O)c1ccccc1O` (stereo unspecified), the TGI is more than 100 µM in [1]; more than 100 µM in assay [2]; 28.4 µM in [3]; more than 100 µM in assay [4]; more than 100 µM in [5]; more than 100 µM in assay [6]. In assay [7], this compound came in with a TGI of more than 100 µM.

For `O[C@@H]1CCCCN1Cc1cc2cc3c(cc2c2cc(OCc4ccccc4)ccc12)OCO3`, the GI50 in [1] was 1.73 µM; in assay [2] it was 1.28 µM; in [8], 1.63 µM; in [3] it was 1.57 µM; in [4] it was 1.37 µM; in [9], 1.5 µM. Moreover, the GI50 in assay [5] is 1.45 µM; in assay [6], 0.666 µM; in [7], 1.03 µM. For the same compound, the TGI in assay [1] is 3.93 µM; in assay [2], 2.66 µM; in [8], 3.59 µM; in [3], 2.91 µM; in assay [4], 2.76 µM; in assay [9], 3.47 µM. Moreover, the TGI amounted to 4.14 µM in assay [5], 8.05 µM in [6] and 2.45 µM in assay [7].

As for `COC(=O)C#CC1(O)C=CC(=O)C=C1`, the TGI in assay [1] was 10.4 µM; in assay [10], 16.1 µM; in assay [8], 17.9 µM; in assay [4], 13.9 µM; in assay [9], more than 100 µM; in assay [11], more than 34.5 µM. Besides, the TGI turned out to be 0.0794 µM in [6] and 13.5 µM in [7].

As to `CC(=O)OC1=C(c2ccccc2)S(=O)(=O)c2ccccc21`, the TGI in assay [1], in assay [2], in assay [10], in assay [8], in assay [3] and in assay [4] was more than 100 µM throughout. Besides, the TGI in assay [9], in assay [5], in assay [6] and in assay [7] was more than 100 µM throughout.

Take `C[C@H]1CC(=O)C[C@@H]2CC[C@@H]3[C@H](CC[C@]4(C)C(OC(=O)c5cccc6c(=O)c7ccccc7[nH]c56)CC[C@@H]34)[C@]21C` (stereo partly specified): the TGI in assay [1] was more than 100 µM; in [2] it was 62.9 µM; in assay [10], more than 100 µM; in [8], more than 100 µM; in [3], 86 µM; in assay [4], more than 100 µM. For the same compound, the TGI was 61 µM in assay [9], more than 100 µM in assay [5], 30.2 µM in assay [6] and more than 100 µM in assay [7].

With `CC(=O)O[C@H]1CC[C@@]2(C)C(=CC[C@@H]3[C@@H]2CC[C@]2(C)C(=O)/C(=C\c4ccccc4)C[C@@H]32)C1`, the TGI in [1], in [2], in assay [8], in assay [3], in assay [4] and in [9] was more than 100 µM in each case. Besides, the TGI in [5], in assay [11], in assay [6] and in assay [7] was more than 100 µM each time.

As for `O=C(O)c1ccc2nc(-c3ccccn3)c(-c3ccccn3)nc2c1`, the TGI in [2], in assay [10], in assay [8], in assay [3], in assay [4] and in assay [9] was more than 100 µM throughout. The TGI in assay [5], in [6] and in assay [7] was more than 100 µM throughout.

In the case of `N#CC(C#N)=CNC(=S)Nc1ccc(S(=O)(=O)Nc2nccs2)cc1`, the TGI in [1], in assay [2], in assay [8], in assay [3], in [4] and in assay [9] was more than 100 µM throughout. Further, the TGI in [11], in [6] and in [7] was more than 100 µM each time.

On to `COc1nc2c(c(=O)[nH]1)N=C(c1ccc([N+](=O)[O-])cc1)CC(c1ccccc1)N2` (stereo unspecified), for which the TGI in [1], in [2], in assay [8], in assay [3], in assay [4] and in [9] was more than 100 µM throughout. Besides, the TGI in assay [5], in [11], in assay [6] and in [7] was more than 100 µM in each case.

For the compound `CSc1cnc2ccccc2c1Sc1cn(C)c2ccccc2c1=O`, the TGI in assay [1] is more than 100 µM; in [2], more than 100 µM; in assay [8] it was 83.3 µM; in assay [4] it was more than 100 µM; in assay [5], more than 100 µM; in assay [6], more than 100 µM. Also, in [7], the TGI is more than 100 µM.

In the case of `CC(C)C1CC(CO)(CNc2nc(N)nc(Cl)c2C=O)C1` (stereo unspecified), the TGI in assay [1] stood at 96.9 µM; in [2], 28 µM; in assay [10] it was 31.3 µM; in assay [8], 17.1 µM; in assay [4] it was 31.9 µM; in [9] it was 23.8 µM. For the same compound, the TGI was 6.15 µM in assay [5], 9.31 µM in assay [11], 5.08 µM in [6] and 6.42 µM in assay [7].

Take `Nc1cc2c(C3OC(CO)C(O)C3O)[nH]nc2c(=S)[nH]1` (stereo unspecified): the TGI in assay [1], in [2], in [8], in [3], in assay [4] and in assay [5] was more than 100 µM throughout. In addition, the TGI in assay [6] and in assay [7] was more than 100 µM throughout.

Take `CCc1c(N=[N+]=[N-])c2ccccc2oc1=O`: the TGI in [2], in assay [10], in assay [4], in [9], in [5] and in assay [11] was more than 100 µM throughout. Moreover, the TGI in assay [6] and in assay [7] was more than 100 µM each time.

For `CS(=O)(=O)Sc1ccc(Cl)cc1`, the TGI stood at 31.5 µM in assay [1]; 12.7 µM in [2]; 25.1 µM in assay [8]; 24.4 µM in assay [3]; 27.9 µM in assay [4]; 42.6 µM in assay [5]. Also, the TGI in assay [6] came to 21.7 µM; in assay [7], 22.6 µM.

Turning to `O=c1cc(O)c1=O`, the TGI in assay [1], in [2], in assay [10], in assay [8], in [3] and in [4] was more than 100 µM throughout. Moreover, the TGI in assay [5], in assay [11], in assay [6] and in [7] was more than 100 µM each time.

For `C/C(=C/C(=O)N(C)c1ccccc1Cl)O[Si](C(C)C)(C(C)C)C(C)C`, the TGI in [1] is 34.8 µM; in [2], 32.6 µM; in [8] it was 64.5 µM; in [3] it was more than 100 µM; in [4], 56.2 µM; in assay [9] it was 39.6 µM. Also, the TGI in assay [11] is 68.7 µM; in [6], more than 100 µM; in assay [7], 34 µM.

Consider `CCOc1cc(NC(C)=O)ccc1C(=O)NN1C(=O)/C(=C/c2ccc(Cl)cc2)N=C1c1ccccc1`, for which the TGI in [1], in assay [2], in assay [8], in [3], in assay [9] and in assay [5] was more than 100 µM throughout. For the same compound, the TGI in [11], in [6] and in assay [7] was more than 100 µM in each case.

On to `O=C(c1ccccc1)N1N=C(C(F)(F)F)CC1(O)C(F)(F)F` (stereo unspecified), for which the TGI in assay [1], in assay [2], in assay [10], in [8], in assay [4] and in assay [9] was more than 100 µM in each case. For the same compound, the TGI in assay [5], in [11], in assay [6] and in assay [7] was more than 100 µM in each case.

`COc1ccc(N(c2ccc(C#N)cc2)c2ccc(C#N)cc2)cc1`: the TGI in assay [1], in assay [2], in assay [10], in assay [8], in assay [3] and in assay [4] was more than 100 µM each time. Further, the TGI in assay [11], in assay [6] and in assay [7] was more than 100 µM in each case.

For the compound `COC(=O)C(Cc1ccc2c(c1)OCO2)(NC(=O)c1ccccc1)P(=O)(OC)OC` (stereo unspecified), the TGI in assay [1], in assay [2], in assay [8], in [3], in assay [4] and in assay [5] was more than 100 µM throughout. For the same compound, the TGI in [6] and in assay [7] was more than 100 µM throughout.

Take `Cn1c2ccccc2n2c3ccccc3c3nnc(N)c-3c12`: the TGI in assay [1] is more than 100 µM; in [2] it was more than 100 µM; in assay [10] it was 10.8 µM; in assay [8], 25.5 µM; in [3], more than 100 µM; in [4], more than 100 µM. Besides, the TGI in assay [9], in assay [5], in assay [6] and in [7] was more than 100 µM each time.

In the case of `CC(=O)Nc1ccc2c3c(cc(O)c2c1)N(C(=O)CCCCCCC(=O)Nc1ccc2c4c(cc(O)c2c1)N(C(=O)OC(C)(C)C)CC4CCl)CC3CCl` (stereo unspecified), the TGI in assay [1] is 0.663 µM; in assay [2], 0.284 µM; in assay [3], 17.2 µM; in assay [4], 0.245 µM; in [9] it was more than 72 µM; in assay [5], more than 100 µM. Moreover, the TGI in assay [11] was 0.332 µM; in assay [6], more than 100 µM.

On to `C/C(=C\COP(=O)(O)CP(=O)(O)O)CC/C=C(\C)CNc1ccccc1`, for which the TGI in assay [1], in assay [2], in [10], in assay [8], in assay [3] and in [4] was more than 100 µM each time. Besides, the TGI in assay [9], in assay [5], in [6] and in assay [7] was more than 100 µM throughout.

With `COc1ccc(C2OC2C(=O)C23CC4CC(CC(C4)C2)C3)cc1` (stereo unspecified), the TGI was more than 100 µM in assay [1]; 50.4 µM in [10]; more than 100 µM in [8]; more than 100 µM in [4]; more than 100 µM in assay [9]; more than 100 µM in [5]. Besides, the TGI in [11], in assay [6] and in assay [7] was more than 100 µM throughout.

As to `CCCCc1c2c([n+]([O-])c3c1CCCC3)CCCC2`, the TGI in [2], in [8], in assay [4], in assay [5], in assay [6] and in assay [7] was more than 100 µM throughout.

In the case of `CC1=C(C(N)=O)C(c2ccncc2)C(C#N)C(=O)N1` (stereo unspecified), the TGI in [2], in assay [10], in [8], in [3], in [4] and in assay [5] was more than 100 µM each time. In addition, the TGI in [6] is more than 100 µM.

As to `CCOC(=O)/C(C#N)=c1/s/c(=C(\O)N/N=C/c2ccc(OC)cc2)c(=N)n1-c1ccccc1`, the TGI in [1], in [2], in [8], in [4], in assay [5] and in [6] was more than 100 µM throughout. In [7], this compound had a TGI of more than 100 µM.

On to `CC12CCC(C(=Nc3ccc([N+](=O)[O-])cc3)C1=O)C2(C)C` (stereo unspecified), for which the TGI in assay [1] is more than 100 µM; in [2], 44.6 µM; in assay [8], more than 100 µM; in assay [3], more than 100 µM; in assay [4] it was more than 100 µM; in assay [9], 63.5 µM. Further, the figures for the TGI in assay [5] and in [7] were 55.2 µM and more than 100 µM, respectively.

On to `CCOC(=O)c1nc2ccccc2nc1Oc1ccc(F)cc1`, for which the TGI in assay [1], in assay [2], in [10], in assay [8], in assay [4] and in assay [9] was more than 100 µM in each case. For the same compound, the TGI in assay [5], in assay [11] and in assay [7] was more than 100 µM in each case.

The values are drawn from PubChem BioAssay (NCI).
